Assay results as given in patent publication US20230226040A1, “COMBINATION THERAPY COMPRISING AN FGFR INHIBITOR AND A KRAS INHIBITOR” (Incyte Corporation, priority 2021, published 2023).
Values joined by “and” are separate entries in the source; they are usually repeats but may differ in a detail not shown here. Identical values can stand only once.

What was measured:
[1] = test system: MiaPaca2 KRAS G12C resistant clone 11; assay: 5-day Cell Titer Glo viability and Bliss score; type: cell-based; settings: MIA-R clone 11, 5 day CTG
Description: For G12C resistant clone generation, MiaPaca2 parent cells were cultured with increasing concentrations of AMG510 (up to 1μM) over time. The viable cells were re-fed fresh media containing AMG510 weekly. Once the AMG510 resistant cells were growing at normal rates in the presence of 1μM AMG510, they were cloned by limiting dilution. Eight clones were selected for continued passage and further experiments.

[2] = test system: MiaPaca2 cells; assay: 5-day Cell Titer Glo viability and Bliss score
Description: For synergy experiments, cells were seeded in RPMI medium with 10% HI FBS at a density of 500 cells/well in Greiner, white, clear bottom, 384-well tissue culture treated plates containing 10x10 combination matrices of compound. Plates were incubated at 37° C., 5% CO2 for 5 days. On day 5, Cell Titer Glo reagent was added to the plates and ATP luminescence was detected using a Pherastar FSX reader. The synergy score for the combination effect was calculated using a Bliss score model where the Bliss score=Yab−(Ya+Yb−(YaYb))×100, where Ya and Yb are the monotherapies. Bliss scores >20 are strongly synergistic and a higher Bliss scores indicates a higher level of synergism.

## CCN1C(=O)N(c2c(F)c(OC)cc(OC)c2F)Cc2cnc3[nH]c(CN4CCOCC4)cc3c21 [Pemigatinib, 3-(2,6-difluoro-3,5-dimethoxyphenyl)-1-ethyl-8-(morpholin-4-ylmethyl)-1,3,4,7-tetrahydro-2H-pyrrolo[3′,2′:5,6]pyrido[4,3-d]pyrimidin-2-one]
[1]; Pemi 1000 nM + KRAS G12C i 333.33 nM
  BLISS Score: 20.06
[1]; Pemi 1000 nM + KRAS G12C i 1000.00 nM
  BLISS Score: 21.43
[2]; MIA PaCa2, Pemi 12 nM + KRAS G12C i 0.15 nM, 5 day CTG
  BLISS Score: −16.39
[2]; MIA PaCa2, Pemi 12 nM + KRAS G12C i 0.46 nM, 5 day CTG
  BLISS Score: −9.92
[2]; MIA PaCa2, Pemi 12 nM + KRAS G12C i 1.37 nM, 5 day CTG
  BLISS Score: −4.50
[2]; MIA PaCa2, Pemi 12 nM + KRAS G12C i 4.12 nM, 5 day CTG
  BLISS Score: −1.78
[2]; MIA PaCa2, Pemi 12 nM + KRAS G12C i 12.35 nM, 5 day CTG
  BLISS Score: −1.91
[2]; MIA PaCa2, Pemi 12 nM + KRAS G12C i 37.04 nM, 5 day CTG
  BLISS Score: 1.33
[2]; MIA PaCa2, Pemi 12 nM + KRAS G12C i 111.11 nM, 5 day CTG
  BLISS Score: 0.06
[2]; MIA PaCa2, Pemi 12 nM + KRAS G12C i 333.33 nM, 5 day CTG
  BLISS Score: 0.73
[2]; MIA PaCa2, Pemi 12 nM + KRAS G12C i 1000.00 nM, 5 day CTG
  BLISS Score: 0.29
[2]; MIA PaCa2, Pemi 37 nM + KRAS G12C i 0.15 nM, 5 day CTG
  BLISS Score: −13.53
[2]; MIA PaCa2, Pemi 37 nM + KRAS G12C i 0.46 nM, 5 day CTG
  BLISS Score: −5.08
[2]; MIA PaCa2, Pemi 37 nM + KRAS G12C i 1.37 nM, 5 day CTG
  BLISS Score: 6.72
[2]; MIA PaCa2, Pemi 37 nM + KRAS G12C i 4.12 nM, 5 day CTG
  BLISS Score: 4.25
[2]; MIA PaCa2, Pemi 37 nM + KRAS G12C i 12.35 nM, 5 day CTG
  BLISS Score: 3.06
[2]; MIA PaCa2, Pemi 37 nM + KRAS G12C i 37.04 nM, 5 day CTG
  BLISS Score: 5.01
[2]; MIA PaCa2, Pemi 37 nM + KRAS G12C i 111.11 nM, 5 day CTG
  BLISS Score: 3.10
[2]; MIA PaCa2, Pemi 37 nM + KRAS G12C i 333.33 nM, 5 day CTG
  BLISS Score: 2.88
[2]; MIA PaCa2, Pemi 37 nM + KRAS G12C i 1000.00 nM, 5 day CTG
  BLISS Score: 2.69
[2]; MIA PaCa2, Pemi 111 nM + KRAS G12C i 0.15 nM, 5 day CTG
  BLISS Score: −10.62
[2]; MIA PaCa2, Pemi 111 nM + KRAS G12C i 0.46 nM, 5 day CTG
  BLISS Score: −7.15
[2]; MIA PaCa2, Pemi 111 nM + KRAS G12C i 1.37 nM, 5 day CTG
  BLISS Score: 9.38
[2]; MIA PaCa2, Pemi 111 nM + KRAS G12C i 4.12 nM, 5 day CTG
  BLISS Score: 4.70
[2]; MIA PaCa2, Pemi 111 nM + KRAS G12C i 12.35 nM, 5 day CTG
  BLISS Score: 4.83
[2]; MIA PaCa2, Pemi 111 nM + KRAS G12C i 37.04 nM, 5 day CTG
  BLISS Score: 6.56
[2]; MIA PaCa2, Pemi 111 nM + KRAS G12C i 111.11 nM, 5 day CTG
  BLISS Score: 4.31
[2]; MIA PaCa2, Pemi 111 nM + KRAS G12C i 333.33 nM, 5 day CTG
  BLISS Score: 3.66
[2]; MIA PaCa2, Pemi 111 nM + KRAS G12C i 1000.00 nM, 5 day CTG
  BLISS Score: 4.56
[2]; MIA PaCa2, Pemi 333 nM + KRAS G12C i 0.15 nM, 5 day CTG
  BLISS Score: −12.96
[2]; MIA PaCa2, Pemi 333 nM + KRAS G12C i 0.46 nM, 5 day CTG
  BLISS Score: −5.77
[2]; MIA PaCa2, Pemi 333 nM + KRAS G12C i 1.37 nM, 5 day CTG
  BLISS Score: 11.10
[2]; MIA PaCa2, Pemi 333 nM + KRAS G12C i 4.12 nM, 5 day CTG
  BLISS Score: 7.47
[2]; MIA PaCa2, Pemi 333 nM + KRAS G12C i 12.35 nM, 5 day CTG
  BLISS Score: 3.76
[2]; MIA PaCa2, Pemi 333 nM + KRAS G12C i 37.04 nM, 5 day CTG
  BLISS Score: 6.27
[2]; MIA PaCa2, Pemi 333 nM + KRAS G12C i 111.11 nM, 5 day CTG
  BLISS Score: 4.88
[2]; MIA PaCa2, Pemi 333 nM + KRAS G12C i 333.33 nM, 5 day CTG
  BLISS Score: 3.97
[2]; MIA PaCa2, Pemi 333 nM + KRAS G12C i 1000.00 nM, 5 day CTG
  BLISS Score: 2.38
[2]; MIA PaCa2, Pemi 1000 nM + KRAS G12C i 0.15 nM, 5 day CTG
  BLISS Score: −10.95
[2]; MIA PaCa2, Pemi 1000 nM + KRAS G12C i 0.46 nM, 5 day CTG
  BLISS Score: −5.74
[2]; MIA PaCa2, Pemi 1000 nM + KRAS G12C i 1.37 nM, 5 day CTG
  BLISS Score: 3.46
[2]; MIA PaCa2, Pemi 1000 nM + KRAS G12C i 4.12 nM, 5 day CTG
  BLISS Score: 6.59
[2]; MIA PaCa2, Pemi 1000 nM + KRAS G12C i 12.35 nM, 5 day CTG
  BLISS Score: 2.84
[2]; MIA PaCa2, Pemi 1000 nM + KRAS G12C i 37.04 nM, 5 day CTG
  BLISS Score: 4.32
[2]; MIA PaCa2, Pemi 1000 nM + KRAS G12C i 111.11 nM, 5 day CTG
  BLISS Score: 4.62
[2]; MIA PaCa2, Pemi 1000 nM + KRAS G12C i 333.33 nM, 5 day CTG
  BLISS Score: 3.71
[2]; MIA PaCa2, Pemi 1000 nM + KRAS G12C i 1000.00 nM, 5 day CTG
  BLISS Score: 4.32
[2]; MIAPACA2, Average, G12C i 111 nM + Pemi 1 μM, 5-day CTG
  BLISS Score: 6.3
[2]; MIAPACA2, G12C i 111 nM + Pemi 1 μM, 5-day CTG, single experiments
  BLISS Score: 8.8 and 5.6 and 4.6
